Reference: patent US10947188B2, “Small molecule ferroptosis inducers” (THE TRUSTEES OF COLUMBIA UNIVERSITY IN THE CITY OF NEW YORK, priority 2016, dated 2021)
Values after ≈ are worked out from the molar mass of the structure shown.

Tests used:
[1] = system: HT-1080 cells; assay: Lethality of commercially available CIL41/70 structural analogs; format: cell-based; settings: Homo sapiens, tested once in technical triplicates
Method: 1,000 cells per 36 μl were seeded in each well in 384-well plates. Lethal compounds were dissolved, and a twofold, 12-point dilution series was prepared in DMSO. Compound solutions were further diluted with media at 1:25, and 4 μl per well of the diluted solutions was added to cell cultures immediately after cells were seeded. […] When other cell-death-modulating compounds (100 nM sodium selenite, 1 μM cerivastatin, 100 μg/mL mevalonic acid) were used in cotreatments, they were supplemented to cell culture for 24 h before lethal compounds were added to cell culture, after which cells were further incubated for 24 h at 37° C. under 5% CO2. On the day of the viability measurement, we added 10 μl per well of 50% Alamar Blue diluted in media (Life Technologies) and further incubated the cells at 37° C. for 6 h. Fluorescence intensity (excitation/emission: 530/590) was measured with a Victor 3 plate reader (PerkinElmer), and the normalized viability was calculated as VL=(IL−I0)/(IV−I0), where VL, I0, IV, and IL are the normalized viability and the raw fluorescence intensities from the wells containing media, cells treated with a vehicle (negative control), and cells with the lethal compound (L), respectively. When the effect of a chemical modulator (M) on L was calculated, we instead used the equation VL|M=(IM,L−I0)/(IM,V−I0), where VL|M, IM,L and IM,V are the normalized viability, and fluorescence intensity from cells treated with […], respectively. The viability was typically measured in biological triplicate unless otherwise specified. A representative dose-response curve, the mean and standard error of normalized viability from one replicate were plotted. HT-1080 viability after modulator treatments corresponding to FIG. 3C and FIGS. 5E-5F is available in FIGS. 19A-19C.
Their lethality was tested once in HT-1080 cells in technical triplicates.

[2] = system: BJeLR; assay: Modulatory profiling: Alamar Blue viability, lethal compound cotreated with death modulator (EC50, AUC); format: cell-based, human; design: AUC, modulator BJ.Gd3+ / AUC, modulator BJ.LNAME / AUC, modulator BJ.Lmin / AUC, modulator BJ.3MA / AUC, modulator BJ.ALLN / AUC, modulator BJ.Boc D / AUC, modulator BJ.CHX / AUC, modulator BJ.Co2+ / AUC, modulator BJ.Nec-1 / AUC, modulator BJ.Pepstatin / AUC, modulator BJ.TLCK / AUC, modulator BJ.atoc / AUC, modulator BJ.trolox / AUC, modulator BJ.zVAD: unit not given beside the values; settings: BJeLR cells, modulatory profile value (AUC); for AUC, modulator BJ.3MA: lethal compound cotreated with modulator 3MA; for AUC, modulator BJ.ALLN: lethal compound cotreated with modulator ALLN; for AUC, modulator BJ.Boc D: lethal compound cotreated with modulator Boc D; for AUC, modulator BJ.CHX: lethal compound cotreated with modulator CHX; for AUC, modulator BJ.Co2+: lethal compound cotreated with modulator Co2+; for AUC, modulator BJ.DPQ: lethal compound cotreated with modulator DPQ; for AUC, modulator BJ.Gd3+: lethal compound cotreated with modulator Gd3+; for AUC, modulator BJ.LNAME: lethal compound cotreated with modulator LNAME; for AUC, modulator BJ.Lmin/NAD+: lethal compound cotreated with modulator Lmin/NAD+; for AUC, modulator BJ.Lmin: lethal compound cotreated with modulator Lmin; for AUC, modulator BJ.NAD+: lethal compound cotreated with modulator NAD+; for AUC, modulator BJ.NMMA: lethal compound cotreated with modulator NMMA; for AUC, modulator BJ.Nec-1: lethal compound cotreated with modulator Nec-1; for AUC, modulator BJ.Pepstatin: lethal compound cotreated with modulator Pepstatin; for AUC, modulator BJ.TLCK: lethal compound cotreated with modulator TLCK; for AUC, modulator BJ.atoc: lethal compound cotreated with modulator atoc; for AUC, modulator BJ.trolox: lethal compound cotreated with modulator trolox; for AUC, modulator BJ.zVAD: lethal compound cotreated with modulator zVAD
[3] = system: HT-1080; assay: as above; format: cell-based; design: AUC, modulator HT.3MA / AUC, modulator HT.ALLN / AUC HT.ATA / AUC HT.ActD / AUC HT.BHA / AUC HT.BHT / AUC HT.BocD / AUC HT.CHX / AUC HT.Co2+ / AUC HT.DPQ / AUC HT.EGTA / AUC HT.Lmim / AUC HT.NAD+ / AUC HT.Nec-1 / AUC HT.SP600125 / AUC HT.TLCK / AUC HT.U0126: unit not given beside the values; settings: for AUC HT.ATA: HT-1080, modulator ATA; for AUC HT.ActD: HT-1080, modulator ActD; for AUC HT.BHA: HT-1080, modulator BHA; for AUC HT.BHT: HT-1080, modulator BHT; for AUC HT.BocD: HT-1080, modulator BocD; for AUC HT.CHX: HT-1080, modulator CHX; for AUC HT.Co2+: HT-1080, modulator Co2+; for AUC HT.CspA: HT-1080, modulator CspA; for AUC HT.DPQ: HT-1080, modulator DPQ; for AUC HT.EGTA: HT-1080, modulator EGTA; for AUC HT.Gd3+: HT-1080, modulator Gd3+; for AUC HT.LNAME: HT-1080, modulator LNAME; for AUC HT.Lmim: HT-1080, modulator Lmim; for AUC HT.NAD+: HT-1080, modulator NAD+; for AUC HT.NMMA: HT-1080, modulator NMMA; for AUC HT.Nec-1: HT-1080, modulator Nec-1; for AUC HT.Pepstatin: HT-1080, modulator Pepstatin; for AUC HT.SP600125: HT-1080, modulator SP600125; for AUC HT.TLCK: HT-1080, modulator TLCK; for AUC HT.U0126: HT-1080, modulator U0126; for HT.atoc (AUC) / HT.bCarotene (AUC) / HT.deferox (AUC) / HT.digoxin (AUC) / HT.trolox (AUC) / HT.zVAD (AUC): HT-1080; for HT.atoc (AUC): modulator atoc; for HT.bCarotene (AUC): modulator bCarotene; for HT.deferox (AUC): modulator deferox; for HT.digoxin (AUC): modulator digoxin; for HT.trolox (AUC): modulator trolox; for HT.zVAD (AUC): modulator zVAD; for AUC, modulator HT.3MA / AUC, modulator HT.ALLN: HT-1080 cells, modulatory profile value (AUC); for AUC, modulator HT.3MA: lethal compound cotreated with modulator 3MA; for AUC, modulator HT.ALLN: lethal compound cotreated with modulator ALLN

N/C(Cc1cccs1)=N\OC(=O)COc1ccc(Cl)cc1Cl [CB75]
EC50 [1]: > 20 µg/mL

N/C(Cc1ccc(Cl)cc1)=N\OC(=O)C(c1ccccc1)c1ccccc1 [VM1]
EC50 [1]: 2 µg/mL (≈ 5.28 µM)

[N-]=[N+]=[N-].[Na+] [NaN3]
AUC, modulator BJ.3MA [2]: −0.09559
AUC, modulator BJ.ALLN [2]: −0.00382
AUC, modulator BJ.Boc D [2]: −0.007273
AUC, modulator BJ.CHX [2]: 0.07262
AUC, modulator BJ.Co2+ [2]: −0.02123
AUC, modulator BJ.DPQ [2]: −0.06947
AUC, modulator BJ.Gd3+ [2]: 0.01113
AUC, modulator BJ.LNAME [2]: −0.01832
AUC, modulator BJ.Lmin/NAD+ [2]: −0.007837
AUC, modulator BJ.Lmin [2]: −0.08417
AUC, modulator BJ.NAD+ [2]: 0.0696
AUC, modulator BJ.NMMA [2]: 0.005874
AUC, modulator BJ.Nec-1 [2]: −0.05229
AUC, modulator BJ.Pepstatin [2]: 0.01611
AUC, modulator BJ.TLCK [2]: 0.032
AUC, modulator BJ.atoc [2]: −0.005135
AUC, modulator BJ.trolox [2]: −0.03837
AUC, modulator BJ.zVAD [2]: −0.001065
AUC HT.ATA [3]: 0.03107
AUC HT.ActD [3]: 0.1197
AUC HT.BHA [3]: −0.04061
AUC HT.BHT [3]: −0.1432
AUC HT.BocD [3]: 0.008996
AUC HT.CHX [3]: 0.04722
AUC HT.Co2+ [3]: 0.03941
AUC HT.CspA [3]: −0.04777
AUC HT.DPQ [3]: −0.00797
AUC HT.EGTA [3]: −0.002548
AUC HT.Gd3+ [3]: −0.004604
AUC HT.LNAME [3]: −0.01351
AUC HT.Lmim [3]: −0.07613
AUC HT.NAD+ [3]: 0.06683
AUC HT.NMMA [3]: 0.002822
AUC HT.Nec-1 [3]: −0.02968
AUC HT.Pepstatin [3]: −0.004337
AUC HT.SP600125 [3]: −0.004079
AUC HT.TLCK [3]: 0.0226
AUC HT.U0126 [3]: 0.02567
HT.atoc (AUC) [3]: −0.031
HT.bCarotene (AUC) [3]: 0.00681
HT.deferox (AUC) [3]: 0.07882
HT.digoxin (AUC) [3]: 0.01948
HT.trolox (AUC) [3]: −0.001376
HT.zVAD (AUC) [3]: 0.01031
AUC, modulator HT.3MA [3]: −0.05719
AUC, modulator HT.ALLN [3]: 0.06335

CC1CC(C)(C)Nc2ccc(OC(=O)c3ccco3)cc21 (stereo not shown) [CIL4]
AUC, modulator BJ.3MA [2]: 0.08316
AUC, modulator BJ.ALLN [2]: −0.003083
AUC, modulator BJ.Boc D [2]: −0.01828
AUC, modulator BJ.CHX [2]: −0.009993
AUC, modulator BJ.Co2+ [2]: −0.1747
AUC, modulator BJ.DPQ [2]: −0.003969
AUC, modulator BJ.Gd3+ [2]: 0.05533
AUC, modulator BJ.LNAME [2]: −0.01288
AUC, modulator BJ.Lmin/NAD+ [2]: 0.08674
AUC, modulator BJ.Lmin [2]: −0.002867
AUC, modulator BJ.NAD+ [2]: 0.02731
AUC, modulator BJ.NMMA [2]: −0.01566
AUC, modulator BJ.Nec-1 [2]: 0.1015
AUC, modulator BJ.Pepstatin [2]: 0.08231
AUC, modulator BJ.TLCK [2]: 0.06929
AUC, modulator BJ.atoc [2]: 0.004307
AUC, modulator BJ.trolox [2]: 0.008406
AUC, modulator BJ.zVAD [2]: 0.01242
AUC HT.ATA [3]: 0.02806
AUC HT.ActD [3]: −0.001463
AUC HT.BHA [3]: −0.00931
AUC HT.BHT [3]: −0.02212
AUC HT.BocD [3]: 0.1272
AUC HT.CHX [3]: 0.1096
AUC HT.Co2+ [3]: −0.144
AUC HT.CspA [3]: −0.04696
AUC HT.DPQ [3]: 0.007359
AUC HT.EGTA [3]: 0.01533
AUC HT.Gd3+ [3]: −0.009953
AUC HT.LNAME [3]: 0.01005
AUC HT.Lmim [3]: −0.01928
AUC HT.NAD+ [3]: −0.01381
AUC HT.NMMA [3]: −0.007501
AUC HT.Nec-1 [3]: 0.002499
AUC HT.Pepstatin [3]: 0.00928
AUC HT.SP600125 [3]: −0.006297
AUC HT.TLCK [3]: 0.0172
AUC HT.U0126 [3]: 0.0005624
HT.atoc (AUC) [3]: 0.02362
HT.bCarotene (AUC) [3]: 0.001026
HT.deferox (AUC) [3]: −3.785E−05
HT.digoxin (AUC) [3]: −0.02389
HT.trolox (AUC) [3]: −0.0201
HT.zVAD (AUC) [3]: 0.0146
AUC, modulator HT.3MA [3]: 0.02219
AUC, modulator HT.ALLN [3]: 0.02482

COC(=O)c1[nH]c2ccc(Br)cc2c1NC(=O)CN1CCN(C2CCCCC2)CC1 [CIL71]
AUC, modulator BJ.3MA [2]: 0.01151
AUC, modulator BJ.ALLN [2]: −0.05589
AUC, modulator BJ.Boc D [2]: 0.0152
AUC, modulator BJ.CHX [2]: −0.06352
AUC, modulator BJ.Co2+ [2]: 0.02676
AUC, modulator BJ.DPQ [2]: 0.03052
AUC, modulator BJ.Gd3+ [2]: 0.01394
AUC, modulator BJ.LNAME [2]: 0.001204
AUC, modulator BJ.Lmin/NAD+ [2]: 0.001502
AUC, modulator BJ.Lmin [2]: −0.02138
AUC, modulator BJ.NAD+ [2]: −0.03656
AUC, modulator BJ.NMMA [2]: −0.000118
AUC, modulator BJ.Nec-1 [2]: −0.02956
AUC, modulator BJ.Pepstatin [2]: −0.01112
AUC, modulator BJ.TLCK [2]: 0.01514
AUC HT.ATA [3]: 0.03481
AUC HT.ActD [3]: 0.0007018
AUC HT.BHA [3]: −0.05622
AUC HT.BHT [3]: −0.05839
AUC HT.BocD [3]: 0.01089
AUC HT.CHX [3]: 0.0761
AUC HT.Co2+ [3]: 0.02342
AUC HT.CspA [3]: −0.03233
AUC HT.DPQ [3]: −0.003505
AUC HT.EGTA [3]: −0.02298
AUC HT.Gd3+ [3]: −0.01552
AUC HT.LNAME [3]: 0.02366
AUC HT.Lmim [3]: −0.002609
AUC HT.NAD+ [3]: 0.01546
AUC HT.NMMA [3]: −0.0007859
HT.atoc (AUC) [3]: 0.03733
HT.bCarotene (AUC) [3]: −0.01281
HT.deferox (AUC) [3]: −0.003654
HT.digoxin (AUC) [3]: −0.01046
HT.trolox (AUC) [3]: −0.01311
HT.zVAD (AUC) [3]: 0.01756
